From PubChem BioAssay AID256 (DTP/NCI, 2004) come the findings set out here.

Each structure is given as a SMILES string. Where “and” joins values, the source holds several entries; their conditions need not be identical. Equal entries are not always repeated. Inconclusive results and toxic doses are left out.

The subject of the test is CD2F1 mice, L1210 leukemia ip, survival T/C. Briefly: NCI In Vivo Anticancer Drug Screen. Data for tumor model L1210 Leukemia (intraperitoneal) in CD2F1 (CDF1) mice. The following applies: higher = longer survival. In a few lines: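 Activity against a transplanted murine tumor was judged by comparing the compound group with a vehicle group. The outcome in the treated animals was divided by that in the controls.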

The mark [1] stands for this setting: endpoint: mean survival time, dose: 100.0 mg/kg/injection, schedule: Q01DX001 (ip), vehicle: saline with Tween-80.
[2] abbreviates: endpoint: mean survival time, dose: 50.0 mg/kg/injection, schedule: Q01DX001 (ip), vehicle: saline.
Setting [3] is: endpoint: mean survival time, dose: 100.0 mg/kg/injection, schedule: Q01DX001 (ip), vehicle: saline.
[4] abbreviates: endpoint: mean survival time, dose: 200.0 mg/kg/injection, schedule: Q01DX001 (ip), vehicle: saline with Tween-80.
The mark [5] stands for this setting: endpoint: mean survival time, dose: 400.0 mg/kg/injection, schedule: Q01DX001 (ip), vehicle: saline with Tween-80.
Where [6] appears, read: endpoint: mean survival time, dose: 50.0 mg/kg/injection, schedule: Q01DX009 (ip), vehicle: saline with Tween-80.
Where [7] appears, read: endpoint: mean survival time, dose: 100.0 mg/kg/injection, schedule: Q01DX001 (ip), vehicle: Klucel (hydroxypropylcellulose) (HPC).
Setting [8] is: endpoint: mean survival time, dose: 200.0 mg/kg/injection, schedule: Q01DX001 (ip), vehicle: Klucel (hydroxypropylcellulose) (HPC).
Setting [9] is: endpoint: mean survival time, dose: 400.0 mg/kg/injection, schedule: Q01DX001 (ip), vehicle: Klucel (hydroxypropylcellulose) (HPC).

As for `CC1=CC(=O)C=C/C1=N/S(=O)(=O)c1ccccc1`, the T/C is, setting by setting: (endpoint: mean survival time, dose: 25.0 mg/kg/injection, schedule: Q01DX001 (ip), vehicle: saline with Tween-80) 93 % of control; (endpoint: mean survival time, dose: 50.0 mg/kg/injection, schedule: Q01DX001 (ip), vehicle: saline with Tween-80) 90 % of control; under setting [1], 97 % of control.
Regarding `OCc1cc2ccccc2cc1Br`, the T/C runs as follows: under setting [2], 89 % of control; under setting [3], 93 % of control; (endpoint: mean survival time, dose: 200.0 mg/kg/injection, schedule: Q01DX001 (ip), vehicle: saline) 95 % of control; (endpoint: mean survival time, dose: 400.0 mg/kg/injection, schedule: Q01DX001 (ip), vehicle: saline) 100 % of control.
On to `CC([NH-])C(C)[NH-].[Cl][Pt+2][Cl]` (stereo unspecified), for which the T/C is 113 % of control (endpoint: mean survival time, dose: 1.56 mg/kg/injection, schedule: Q04DX002 (ip), vehicle: Klucel (hydroxypropylcellulose) (HPC)); 120 % of control (endpoint: mean survival time, dose: 3.12 mg/kg/injection, schedule: Q04DX002 (ip), vehicle: Klucel (hydroxypropylcellulose) (HPC)); 166 % of control (endpoint: mean survival time, dose: 12.5 mg/kg/injection, schedule: Q04DX002 (ip), vehicle: Klucel (hydroxypropylcellulose) (HPC)); 118 % of control and 120 % of control (endpoint: mean survival time, dose: 25.0 mg/kg/injection, schedule: Q04DX002 (ip), vehicle: Klucel (hydroxypropylcellulose) (HPC)); 89 % of control (endpoint: mean survival time, dose: 50.0 mg/kg/injection, schedule: Q04DX002 (ip), vehicle: Klucel (hydroxypropylcellulose) (HPC)).
As to `CC(=O)NCc1ccc2c(c1)OCO2`, the T/C is, setting by setting: under setting [1], 98 % of control; under setting [4], 111 % of control; under setting [5], 106 % of control.
As to `COC(=O)c1ccc(N=NN(C)C)cc1`, the T/C by setting is: (endpoint: mean survival time, dose: 23.0 mg/kg/injection, schedule: Q01DX009 (ip), vehicle: Klucel (hydroxypropylcellulose) (HPC)) 108 % of control; (endpoint: mean survival time, dose: 39.0 mg/kg/injection, schedule: Q01DX009 (ip), vehicle: Klucel (hydroxypropylcellulose) (HPC)) 108 % of control; (endpoint: mean survival time, dose: 65.0 mg/kg/injection, schedule: Q01DX009 (ip), vehicle: Klucel (hydroxypropylcellulose) (HPC)) 116 % of control.
Turning to `CCOC(=O)NN=C1CCCC1`, the T/C was 88 % of control (endpoint: mean survival time, dose: 12.5 mg/kg/injection, schedule: Q01DX009 (ip), vehicle: saline with Tween-80); 88 % of control (endpoint: mean survival time, dose: 25.0 mg/kg/injection, schedule: Q01DX009 (ip), vehicle: saline with Tween-80); 92 % of control under setting [6].
Take `CC(=O)/C=C\c1cc(C)ccc1O`: the T/C is, setting by setting: under setting [7], 95 % of control; under setting [8], 103 % of control; under setting [9], 100 % of control.
As for `O=C1N(CCc2ccccc2)CC2C(c3ccccc3)NNC12O` (stereo unspecified), the T/C under setting [1] is 96 % of control, the T/C under setting [4] was 87 % of control and the T/C under setting [5] is 87 % of control.
`CCCCCCCCCCC(N)C(=O)O` (stereo unspecified): the T/C (endpoint: mean survival time, dose: 100.0 mg/kg/injection, schedule: Q01DX009 (ip), vehicle: saline) is 95 % of control; the T/C (endpoint: mean survival time, dose: 100.0 mg/kg/injection, schedule: Q04DX003 (ip), vehicle: saline) was 100 % of control; the T/C (endpoint: mean survival time, dose: 200.0 mg/kg/injection, schedule: Q01DX009 (ip), vehicle: saline) was 92 % of control; the T/C (endpoint: mean survival time, dose: 200.0 mg/kg/injection, schedule: Q04DX003 (ip), vehicle: saline) was 97 % of control; the T/C (endpoint: mean survival time, dose: 400.0 mg/kg/injection, schedule: Q01DX009 (ip), vehicle: saline) is 95 % of control; the T/C (endpoint: mean survival time, dose: 400.0 mg/kg/injection, schedule: Q04DX003 (ip), vehicle: saline) is 96 % of control.
Consider `O=C1OC(=O)[C@H]2[C@@H]1[C@H]1C=C[C@@H]2OC1=O`, for which the T/C is 98 % of control (endpoint: median survival time, dose: 12.5 mg/kg/injection, schedule: Q01DX009 (ip), vehicle: saline); 104 % of control (endpoint: median survival time, dose: 25.0 mg/kg/injection, schedule: Q01DX009 (ip), vehicle: saline); 104 % of control (endpoint: median survival time, dose: 50.0 mg/kg/injection, schedule: Q01DX009 (ip), vehicle: saline); 104 % of control (endpoint: median survival time, dose: 100.0 mg/kg/injection, schedule: Q01DX009 (ip), vehicle: saline); 96 % of control (endpoint: median survival time, dose: 200.0 mg/kg/injection, schedule: Q01DX009 (ip), vehicle: saline).
Take `Cc1cc2c(=O)[nH]cnc2[nH]1`: the T/C is 102 % of control (endpoint: median survival time, dose: 12.5 mg/kg/injection, schedule: Q01DX005 (ip), vehicle: saline with Tween-80); 100 % of control (endpoint: median survival time, dose: 25.0 mg/kg/injection, schedule: Q01DX005 (ip), vehicle: saline with Tween-80); 101 % of control (endpoint: median survival time, dose: 50.0 mg/kg/injection, schedule: Q01DX005 (ip), vehicle: saline with Tween-80); 102 % of control (endpoint: median survival time, dose: 50.0 mg/kg/injection, schedule: Q01DX005 (ip), vehicle: saline); 90 % of control (endpoint: median survival time, dose: 100.0 mg/kg/injection, schedule: Q01DX005 (ip), vehicle: saline).
`Cn1c(=O)[nH]c2c(nc(-c3ccccc3)n2C)c1=O`: the T/C is 87 % of control (endpoint: mean survival time, dose: 12.5 mg/kg/injection, schedule: Q01DX005 (ip), vehicle: other); 96 % of control (endpoint: mean survival time, dose: 25.0 mg/kg/injection, schedule: Q01DX005 (ip), vehicle: other); 89 % of control (endpoint: mean survival time, dose: 50.0 mg/kg/injection, schedule: Q01DX005 (ip), vehicle: other); 94 % of control (endpoint: mean survival time, dose: 100.0 mg/kg/injection, schedule: Q01DX005 (ip), vehicle: other).
With `COc1cc(Cl)ccc1NC(=O)Nc1ccc(S(N)(=O)=O)cc1`, the T/C is 91 % of control under setting [6]; 100 % of control (endpoint: mean survival time, dose: 100.0 mg/kg/injection, schedule: Q01DX009 (ip), vehicle: saline with Tween-80); 91 % of control (endpoint: mean survival time, dose: 200.0 mg/kg/injection, schedule: Q01DX009 (ip), vehicle: saline with Tween-80).
On to `COC(=O)C1OC(OC(C)=O)C(OC(C)=O)C(OC(C)=O)C1OC(C)=O` (stereo unspecified), for which the T/C was 98 % of control (endpoint: mean survival time, dose: 75.0 mg/kg/injection, schedule: Q04DX003 (ip), vehicle: saline with Tween-80); 98 % of control (endpoint: mean survival time, dose: 150.0 mg/kg/injection, schedule: Q04DX003 (ip), vehicle: saline with Tween-80); 92 % of control (endpoint: mean survival time, dose: 300.0 mg/kg/injection, schedule: Q04DX003 (ip), vehicle: saline with Tween-80).
Regarding `Cc1csc2nccc(Cl)c12`, the T/C is 100 % of control under setting [1], 112 % of control under setting [4] and 97 % of control under setting [5].
`COC(CNCCO)c1ccccc1` (stereo unspecified): the T/C (endpoint: mean survival time, dose: 25.0 mg/kg/injection, schedule: Q01DX001 (ip), vehicle: saline) is 97 % of control; the T/C under setting [2] was 101 % of control; the T/C under setting [3] was 100 % of control and 106 % of control.
For the compound `CC(=O)NCc1cnccn1`, the T/C runs as follows: (endpoint: mean survival time, dose: 100.0 mg/kg/injection, schedule: Q04DX003 (ip), vehicle: saline sonified) 103 % of control; (endpoint: mean survival time, dose: 200.0 mg/kg/injection, schedule: Q04DX003 (ip), vehicle: saline sonified) 102 % of control; (endpoint: mean survival time, dose: 400.0 mg/kg/injection, schedule: Q04DX003 (ip), vehicle: saline sonified) 102 % of control.
As to `COc1cc(CCl)ccc1OCc1ccccc1`, the T/C (endpoint: mean survival time, dose: 100.0 mg/kg/injection, schedule: Q04DX003 (ip), vehicle: other) was 98 % of control; the T/C (endpoint: mean survival time, dose: 200.0 mg/kg/injection, schedule: Q04DX003 (ip), vehicle: other) is 98 % of control; the T/C (endpoint: mean survival time, dose: 400.0 mg/kg/injection, schedule: Q04DX003 (ip), vehicle: other) was 109 % of control.
With `c1coc(CNc2ncnc3c2ncn3CCCCCCn2cnc3c(NCc4ccco4)ncnc32)c1`, the T/C by setting is: (endpoint: mean survival time, dose: 1.0 mg/kg/injection, schedule: Q01DX005 (ip), vehicle: other) 95 % of control; (endpoint: mean survival time, dose: 2.0 mg/kg/injection, schedule: Q01DX005 (ip), vehicle: other) 92 % of control; (endpoint: mean survival time, dose: 4.0 mg/kg/injection, schedule: Q01DX005 (ip), vehicle: other) 95 % of control; (endpoint: mean survival time, dose: 16.0 mg/kg/injection, schedule: Q01DX005 (ip), vehicle: other) 95 % of control.
With `COc1ccccc1NC(=O)Oc1ccc2ccccc2c1`, the T/C was 103 % of control (endpoint: mean survival time, dose: 100.0 mg/kg/injection, schedule: Q04DX002 (ip), vehicle: saline with Tween-80) and 91 % of control (endpoint: mean survival time, dose: 200.0 mg/kg/injection, schedule: Q04DX002 (ip), vehicle: saline with Tween-80).
Take `O=S(=O)(OCCCCCOS(=O)(=O)c1cccnc1)c1cccnc1`: the T/C is, setting by setting: (endpoint: mean survival time, dose: 10.0 mg/kg/injection, schedule: Q04DX002 (ip), vehicle: saline with Tween-80) 95 % of control; (endpoint: mean survival time, dose: 40.0 mg/kg/injection, schedule: Q04DX002 (ip), vehicle: saline with Tween-80) 98 % of control.
For the compound `CC(=O)CC(C)(C)S(=O)(=O)Cc1ccccc1`, the T/C runs as follows: under setting [7], 93 % of control; under setting [8], 96 % of control; under setting [9], 96 % of control.
